{
  "source": "patent US12466840B2",
  "about": "“Small molecule inhibitors of KRAS proteins” (Merck Sharp & Dohme LLC, priority 2023, dated 2025)",
  "assay_type_in_all_cases": "in vivo",
  "key": {"[1]": {"experiment": "Dog IV/PO pharmacokinetic studies", "details": "for clearance / MRT / Vd / bioavailability / CLp: plasma; for clearance / MRT / Vd / CLp: IV 0.25 mg/kg (Ex-2 0.05 mg/kg); for clearance: read-out: CLp; for bioavailability / F %: oral bioavailability, PO 0.5 mg/kg vs. IV", "description": "Procedure for Dog IV/PO Pharmacokinetic Studies\nPlasma pharmacokinetic parameters for clearance, volume of distribution, half-life, mean residence time (MRT) and oral bioavailability were determined in dogs from oral administration and IV administration studies. 4 male dogs, typically weighing 8-12 kg, were fasted overnight prior to dosing. IV formulation was administered to 2 dogs via the saphenous or cephalic vein, and oral dosing was administered to 2 dogs via oral gavage. Blood was collected by the cephalic or jugular vein, typically at predose, 2, 8, 15, 30 min, 1, 2, 4, 6, 8 and 24 h postdose for IV, and at predose, 15, 30 min, 1, 2, 4, 6, 8, and 24 hr for oral dosing. Samples were collected in K2EDTA tubes, stored on ice, and centrifuged. Plasma was transferred to a micro titer plate and stored at −70° C. until analysis. Plasma samples were extracted using protein precipitation and analyzed by liquid chromatography separation followed by mass spec detection (LC-MS/MS), using a standard curve for each compound. Plasma pharmacokinetic parameters were calculated for IV and oral dosing data by non-compartmental methods. Oral bioavailability was determined as the ratio of the dose-normalized plasma area under the curve (AUC) following oral dosing vs. IV dosing."}, "[2]": {"experiment": "Rat IV/PO pharmacokinetic studies", "details": "for clearance / MRT / Vd / bioavailability / CLp: plasma; for clearance / MRT / Vd / CLp: IV 1 mg/kg; for clearance: read-out: CLp; for bioavailability / F %: oral bioavailability, PO 2 mg/kg vs. IV 1 mg/kg", "description": "Procedure for Rat IV/PO Pharmacokinetic Studies\nPlasma pharmacokinetic parameters for clearance, volume of distribution, half-life and oral bioavailability were determined in rats from oral administration and IV administration studies. 4 male rats, typically weighing 225-260 g, were fasted overnight prior to dosing. IV formulation was administered to 2 rats via pre-cannulated jugular vein, and oral dosing was administered to 2 rats via oral gavage. Blood was collected by pre-cannulated artery, typically at predose, 2, 8, 15, 30 min, 1, 2, 4, 6, and 8 hr postdose for IV, and at predose, 15, 30 min, 1, 2, 4, 6, 8 h for oral dosing. Samples were collected in K2EDTA tubes, stored on ice, and centrifuged. Plasma was transferred to a micro titer plate and stored at −70° C. until analysis. Plasma samples were extracted using protein precipitation and analyzed by liquid chromatography separation followed by mass spec detection (LC-MS/MS), using a standard curve for each compound. Plasma pharmacokinetic parameters were calculated for IV and oral dosing data by non-compartmental methods. Oral bioavailability was determined as the ratio of the dose-normalized plasma area under the curve (AUC) following oral dosing vs. IV dosing."}, "[3]": {"experiment": "Dog IV cassette pharmacokinetic studies", "details": "plasma, IV cassette 0.05 mg/kg", "description": "Procedure for Dog IV Cassette Pharmacokinetic Studies\nPlasma pharmacokinetic parameters for clearance, volume of distribution, half-life, and mean residence time (MRT) were determined in dogs from IV cassette administration studies. 2 male dogs, typically weighing 8-12 kg, were fasted overnight prior to dosing. IV formulation was administered to 2 dogs via the saphenous or cephalic vein. Blood was collected by the cephalic or jugular vein, typically at predose, 2, 8, 15, 30 min, 1, 2, 4, 6, 8 and 24 h postdose. Samples were collected in K2EDTA tubes, stored on ice, and centrifuged. Plasma was transferred to a micro titer plate and stored at −70° C. until analysis. Plasma samples were extracted using protein precipitation and analyzed by liquid chromatography separation followed by mass spec detection (LC-MS/MS), using a standard curve for each compound. Plasma pharmacokinetic parameters were calculated by non-compartmental methods."}},
  "data": [
    {"smiles": "CCc1c(F)ccc2cc3[nH]nc(C)c3c(-c3nc4c5c(nc(OC[C@@]67CCCN6C[C@H](F)C7)nc5c3F)N3CCCOC[C@H]3CO4)c12", "note": "[Ex-6, (8aS)-5-(5-ethyl-6-fluoro-3-methyl-1H-benzo[f]indazol-4-yl)-4-fluoro-2-(((2R,7aS)-2-fluorotetrahydro-1H-pyrrolizin-7a(5H)-yl)methoxy)-8a,9,12,13-tetrahydro-8H,11H-7,10-dioxa-1,3,6,13a-tetraazanaphtho[1,8-ab]heptalene]", "values": [
      {"measurement": "clearance", "setting": "[1]; male", "value": 8, "unit": "mL/min/kg"},
      {"measurement": "MRT", "setting": "[1]; male, read-out: MRT", "value": 7.8, "unit": "h"},
      {"measurement": "Vd", "setting": "[1]; male, read-out: Vd", "value": 3.7, "unit": "L/kg"},
      {"measurement": "bioavailability", "setting": "[1]; male", "value": 59, "unit": "%"},
      {"measurement": "clearance", "setting": "[2]; male", "value": 36, "unit": "mL/min/kg"},
      {"measurement": "MRT", "setting": "[2]; male, read-out: MRT", "value": 2.4, "unit": "h"},
      {"measurement": "Vd", "setting": "[2]; male, read-out: Vd", "value": 5.1, "unit": "L/kg"},
      {"measurement": "bioavailability", "setting": "[2]; male", "value": 18, "unit": "%"}
    ]},
    {"smiles": "F/C=C1/CN2CCC[C@@]2(COc2nc3c4c(nc(-c5c(C6CC6)c(Cl)cc6[nH]ncc56)c(F)c4n2)OC[C@@H]2COCCCN32)C1", "note": "[Ex-1, (8aS)-5-(6-chloro-5-cyclopropyl-1H-indazol-4-yl)-4-fluoro-2-(((S,Z)-2-(fluoromethylene)tetrahydro-1H-pyrrolizin-7a(5H)-yl)methoxy)-8a,9,12,13-tetrahydro-8H,11H-7,10-dioxa-1,3,6,13a-tetraazanaphtho[1,8-ab]heptalene]", "values": [
      {"measurement": "F %", "setting": "[1]", "value": 17, "unit": "%"},
      {"measurement": "CLp", "setting": "[1]", "value": 5.0, "unit": "mL/min/kg"},
      {"measurement": "MRT", "setting": "[1]", "value": 2.2, "unit": "h"},
      {"measurement": "Vd", "setting": "[1]", "value": 0.65, "unit": "L/kg"},
      {"measurement": "F %", "setting": "[2]", "value": 11, "unit": "%"},
      {"measurement": "CLp", "setting": "[2]", "value": 24, "unit": "mL/min/kg"},
      {"measurement": "MRT", "setting": "[2]", "value": 1.4, "unit": "h"},
      {"measurement": "Vd", "setting": "[2]", "value": 2.0, "unit": "L/kg"}
    ]},
    {"smiles": "CCc1c(F)ccc2cc3[nH]ncc3c(-c3nc4c5c(nc(OC[C@@]67CCCN6C[C@H](F)C7)nc5c3F)N3CCCOC[C@H]3CO4)c12", "note": "[Ex-2, (8aS)-5-(5-ethyl-6-fluoro-1H-benzo[f]indazol-4-yl)-4-fluoro-2-(((2R,7aS)-2-fluorotetrahydro-1H-pyrrolizin-7a(5H)-yl)methoxy)-8a,9,12,13-tetrahydro-8H,11H-7,10-dioxa-1,3,6,13a-tetraazanaphtho[1,8-ab]heptalene]", "values": [
      {"measurement": "F %", "setting": "[1]", "value": 29, "unit": "%"},
      {"measurement": "CLp", "setting": "[1]", "value": 18, "unit": "mL/min/kg"},
      {"measurement": "MRT", "setting": "[1]", "value": 2.4, "unit": "h"},
      {"measurement": "Vd", "setting": "[1]", "value": 2.6, "unit": "L/kg"},
      {"measurement": "F %", "setting": "[2]", "value": 10, "unit": "%"},
      {"measurement": "CLp", "setting": "[2]", "value": 40, "unit": "mL/min/kg"},
      {"measurement": "MRT", "setting": "[2]", "value": 2.5, "unit": "h"},
      {"measurement": "Vd", "setting": "[2]", "value": 6.1, "unit": "L/kg"}
    ]},
    {"smiles": "CCc1c(F)ccc2cc3[nH]nc(C)c3c(-c3nc4c5c(nc(OC[C@@]67CCCN6C/C(=C\\F)C7)nc5c3F)N3CCCOC[C@H]3CO4)c12", "note": "[Ex-7, (8aS)-5-(5-ethyl-6-fluoro-3-methyl-1H-benzo[f]indazol-4-yl)-4-fluoro-2-(((S,Z)-2-(fluoromethylene)tetrahydro-1H-pyrrolizin-7a(5H)-yl)methoxy)-8a,9,12,13-tetrahydro-8H,11H-7,10-dioxa-1,3,6,13a-tetraazanaphtho[1,8-ab]heptalene]", "values": [
      {"measurement": "CLp", "setting": "[3]", "value": 7.7, "unit": "mL/min/kg"},
      {"measurement": "MRT", "setting": "[3]", "value": 3.1, "unit": "h"},
      {"measurement": "Vd", "setting": "[3]", "value": 1.4, "unit": "L/kg"},
      {"measurement": "F %", "setting": "[2]", "value": 15, "unit": "%"},
      {"measurement": "CLp", "setting": "[2]", "value": 35, "unit": "mL/min/kg"},
      {"measurement": "MRT", "setting": "[2]", "value": 1.9, "unit": "h"},
      {"measurement": "Vd", "setting": "[2]", "value": 4.0, "unit": "L/kg"}
    ]},
    {"smiles": "Fc1c(-c2c(C3CC3)c(Cl)cc3[nH]ncc23)nc2c3c(nc(OC[C@@]45CCCN4C[C@H](F)C5)nc13)N1CCCOC[C@H]1CO2", "note": "[Ex-3, (8aS)-5-(6-chloro-5-cyclopropyl-1H-indazol-4-yl)-4-fluoro-2-(((2R,7aS)-2-fluorotetrahydro-1H-pyrrolizin-7a(5H)-yl)methoxy)-8a,9,12,13-tetrahydro-8H,11H-7,10-dioxa-1,3,6,13a-tetraazanaphtho[1,8-ab]heptalene]", "values": [
      {"measurement": "clearance", "setting": "[1]; male", "value": 10, "unit": "mL/min/kg"},
      {"measurement": "MRT", "setting": "[1]; male, read-out: MRT", "value": 3.6, "unit": "h"},
      {"measurement": "Vd", "setting": "[1]; male, read-out: Vd", "value": 2.2, "unit": "L/kg"},
      {"measurement": "bioavailability", "setting": "[1]; male", "value": 15, "unit": "%"},
      {"measurement": "clearance", "setting": "[2]; male", "value": 40, "unit": "mL/min/kg"},
      {"measurement": "MRT", "setting": "[2]; male, read-out: MRT", "value": 1.7, "unit": "h"},
      {"measurement": "Vd", "setting": "[2]; male, read-out: Vd", "value": 4, "unit": "L/kg"},
      {"measurement": "bioavailability", "setting": "[2]; male", "value": 7.5, "unit": "%"}
    ]}
  ]
}
